# Experimental data published in PubChem BioAssay (NCI).
#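 Test compounds were applied to cells in 96-well plates for 48 hours at 5 doses. Definition used: TGI = concentration required for complete inhibition of growth.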
# Tested on: A549 NSCLC
# Test: NCI anticancer screen, dose series, 48 h
row,Compound,TGI [µM]
1,O=[N+]([O-])c1cccc(C2=NN(c3ccccc3)C[N+](c3ccc(Br)cc3)=N2)c1,> 100
2,O=C(O)CCCc1nc2c(n1Cc1ccccc1)C(=O)c1ccccc1C2=O,> 100
3,CCOC(=O)NC(Nc1ccc(C)cc1)(C(F)(F)F)C(F)(F)F,> 100
4,[N-]=[N+]=Nc1c([N+](=O)[O-])c(=O)n(-c2ccccc2)c2ccccc12,> 100
5,O=[N+]([O-])c1ccc2[nH]c(=S)[nH]c(=S)c2c1,> 100

# Tested on: SK-MEL-5 melanoma
# Test: NCI anticancer screen, dose series, 48 h
row,Compound,TGI [µM]
1,O=[N+]([O-])C[C@@]12O[C@]3(O)C4C5CC(C6C5C3C61)C42 (stereo partly drawn),> 100
2,O=C1C2SC34c5c2c2ccccc2n5CCC3CCCN14 (stereo not drawn),> 100
3,CCCC(=O)NC(NC1CCCCC1)(C(=O)OCC)C(F)(F)F (stereo not drawn),> 100
4,O=C(/C=C/c1ccccc1)Oc1cccc(O)c1,> 100
5,Cc1c2n(c(=O)[nH]c1=O)C1OC(CO)C(O2)C1O (stereo not drawn),> 100
6,COc1cccc(C(=O)Oc2ccc(OS(=O)(=O)c3ccc(C)cc3)cc2)c1C#N,31.2
7,CC1(C)/C(=N\NC(N)=O)C2CCC1C2 (stereo not drawn),> 100
8,Cc1ccc(C2SCC(=O)N2c2ccc(-n3c(-c4ccccc4)nc4ccccc4c3=O)cc2)cc1 (stereo not drawn),31.9
9,CC1(C)[C@@H](Cn2ccc(=O)[nH]c2=O)CC[C@@]1(C)CO,> 100
10,CC(C)C1=CC23CCC4C(C)(C(=O)O)CCCC4(C)C2CC1C1C(=O)N(c2ccc(Cc4ccc(N5C(=O)C6C7CC8C9(C)CCCC(C)(C(=O)O)C9CCC8(C=C7C(C)C)C6C5=O)cc4)cc2)C(=O)C13 (stereo not drawn),24.8
11,Cn1c(=O)c2c(ncn2CCNC(CO)C(O)c2ccc([N+](=O)[O-])cc2)n(C)c1=O (stereo not drawn),> 100
12,CCCNC(=O)NNC(=O)c1c[nH]c2nc(C)ccc2c1=O,> 100
13,C=CCCON(C(=O)OC(C)(C)C)C(C)(C)C,> 100
14,CCOC(=O)Nc1[nH]cc(-c2ccccc2)c1C#N,> 100
15,[N-]=[N+]=NC1(Cc2ccccc2)C(=O)c2cccc3c2N(CCC3)C1=O (stereo not drawn),> 100
16,NC(N)=NS(=O)(=O)c1ccc(NNc2c3ccccc3nc3c(C(=O)Nc4ccc(S(=O)(=O)Nc5ncccn5)cc4)cccc23)cc1,> 100
17,O=c1oc2ccccc2cc1-c1cc2ccccn2c1,> 100
18,COC(=O)c1c(O)ccc2c1c1c(n2Cc2cc(OC)cc(OC)c2)C(=O)c2ccccc2C1,> 100
19,COC[C@@H](N=CC(C)(C)C)C(C)C,> 100
20,NC(N)=NCCN1CC2CCC(CC2)C1,> 100
21,O=C1COc2cccnc2N1CCCCO,> 100
22,O=[N+]([O-])c1cccc(C2=NN(c3ccccc3)C[N+](c3ccc(Br)cc3)=N2)c1,> 100
23,CCOC(=O)NC(Nc1ccc(C)cc1)(C(F)(F)F)C(F)(F)F,> 100
24,[N-]=[N+]=Nc1c([N+](=O)[O-])c(=O)n(-c2ccccc2)c2ccccc12,59.5
25,O=[N+]([O-])c1ccc2[nH]c(=S)[nH]c(=S)c2c1,> 100

# Tested on: HCC-2998 colon
# Test: NCI anticancer screen, dose series, 48 h
row,Compound,TGI [µM]
1,CCCC(=O)NC(NC1CCCCC1)(C(=O)OCC)C(F)(F)F (stereo not drawn),> 100
2,O=C(/C=C/c1ccccc1)Oc1cccc(O)c1,> 100
3,Cc1ccc(C2SCC(=O)N2c2ccc(-n3c(-c4ccccc4)nc4ccccc4c3=O)cc2)cc1 (stereo not drawn),63.1
4,CC1(C)[C@@H](Cn2ccc(=O)[nH]c2=O)CC[C@@]1(C)CO,> 100
5,CC(C)C1=CC23CCC4C(C)(C(=O)O)CCCC4(C)C2CC1C1C(=O)N(c2ccc(Cc4ccc(N5C(=O)C6C7CC8C9(C)CCCC(C)(C(=O)O)C9CCC8(C=C7C(C)C)C6C5=O)cc4)cc2)C(=O)C13 (stereo not drawn),21.7
6,NC(N)=NS(=O)(=O)c1ccc(NNc2c3ccccc3nc3c(C(=O)Nc4ccc(S(=O)(=O)Nc5ncccn5)cc4)cccc23)cc1,> 100
7,COC[C@@H](N=CC(C)(C)C)C(C)C,> 100
8,NC(N)=NCCN1CC2CCC(CC2)C1,> 100
9,O=[N+]([O-])c1cccc(C2=NN(c3ccccc3)C[N+](c3ccc(Br)cc3)=N2)c1,> 100
10,O=C(O)CCCc1nc2c(n1Cc1ccccc1)C(=O)c1ccccc1C2=O,> 100
11,CCOC(=O)NC(Nc1ccc(C)cc1)(C(F)(F)F)C(F)(F)F,> 100
12,[N-]=[N+]=Nc1c([N+](=O)[O-])c(=O)n(-c2ccccc2)c2ccccc12,> 100
13,O=[N+]([O-])c1ccc2[nH]c(=S)[nH]c(=S)c2c1,> 100

# Tested on: HT29 colon
# Test: NCI anticancer screen, dose series, 48 h
row,Compound,TGI [µM]
1,O=[N+]([O-])C[C@@]12O[C@]3(O)C4C5CC(C6C5C3C61)C42 (stereo partly drawn),> 100
2,O=C1C2SC34c5c2c2ccccc2n5CCC3CCCN14 (stereo not drawn),> 100
3,CCCC(=O)NC(NC1CCCCC1)(C(=O)OCC)C(F)(F)F (stereo not drawn),> 100
4,O=C(/C=C/c1ccccc1)Oc1cccc(O)c1,> 100
5,Cc1c2n(c(=O)[nH]c1=O)C1OC(CO)C(O2)C1O (stereo not drawn),> 100
6,COc1cccc(C(=O)Oc2ccc(OS(=O)(=O)c3ccc(C)cc3)cc2)c1C#N,> 100
7,CC1(C)/C(=N\NC(N)=O)C2CCC1C2 (stereo not drawn),> 100
8,Cc1ccc(C2SCC(=O)N2c2ccc(-n3c(-c4ccccc4)nc4ccccc4c3=O)cc2)cc1 (stereo not drawn),61.1
9,CC(C)C1=CC23CCC4C(C)(C(=O)O)CCCC4(C)C2CC1C1C(=O)N(c2ccc(Cc4ccc(N5C(=O)C6C7CC8C9(C)CCCC(C)(C(=O)O)C9CCC8(C=C7C(C)C)C6C5=O)cc4)cc2)C(=O)C13 (stereo not drawn),8.58
10,Cn1c(=O)c2c(ncn2CCNC(CO)C(O)c2ccc([N+](=O)[O-])cc2)n(C)c1=O (stereo not drawn),> 100
11,CCCNC(=O)NNC(=O)c1c[nH]c2nc(C)ccc2c1=O,> 100
12,C=CCCON(C(=O)OC(C)(C)C)C(C)(C)C,> 100
13,CCOC(=O)Nc1[nH]cc(-c2ccccc2)c1C#N,> 100
14,[N-]=[N+]=NC1(Cc2ccccc2)C(=O)c2cccc3c2N(CCC3)C1=O (stereo not drawn),> 100
15,NC(N)=NS(=O)(=O)c1ccc(NNc2c3ccccc3nc3c(C(=O)Nc4ccc(S(=O)(=O)Nc5ncccn5)cc4)cccc23)cc1,54.6
